# Data taken from ChEMBL document CHEMBL1800003, “In vivo and in vitro SAR of tetracyclic MAPKAP-K2 (MK2) inhibitors. Part I” (Bioorg Med Chem Lett, 2010).
# Tested on: PBMC
# Experiment: Antiinflammatory activity against LPS-induced TNFalpha release in human PBMC preincubated for 30 mins measured after 3 hrs of LPS stimulation
# Type: functional, cell-based
row,Structure (SMILES),IC50
1,COCCOc1cncc(-c2cc3c(ccc4c5c([nH]c43)CCNC5=O)cn2)c1,260 nM
2,O=C1NCCCc2[nH]c3c(ccc4cnc(-c5ccccc5OCCN5CCOCC5)cc43)c21,> 3000 nM
3,O=C1NCCCc2[nH]c3c(ccc4cnc(-c5cncc(OCCN6CCOCC6)c5)cc43)c21,8600 nM
4,COCCOc1cncc(-c2cc3c(ccc4c5c([nH]c43)CCCNC5=O)cn2)c1,8380 nM
5,COc1ccc(-c2cc3c(ccc4c5c([nH]c43)CCCNC5=O)cn2)cc1,580 nM
6,NCc1[nH]c2c(ccc3cnc(/C=C/c4ccccc4)cc32)c1C(=O)O,735 nM
7,CNCc1[nH]c2c(ccc3cnc(/C=C/c4ccccc4)cc32)c1C(=O)O,1240 nM
8,O=C1NOCc2[nH]c3c(ccc4cnc(/C=C/c5ccccc5)cc43)c21,46 nM
9,COc1ccc(-c2cc3c(ccc4c5c([nH]c43)CN(C)NC5=O)cn2)cc1,2360 nM
10,O=C1NCc2[nH]c3c(ccc4cnc(/C=C/c5ccccc5)cc43)c21,14 nM
11,O=C1NCc2[nH]c3c(ccc4cnc(/C=C/c5ccc(CN6CCOCC6)cc5)cc43)c21,5 nM
12,O=C1NCc2[nH]c3c(ccc4cnc(/C=C/c5cccc(CCN6CCOCC6)c5)cc43)c21,14 nM
13,O=C1NCc2[nH]c3c(ccc4cnc(Nc5cccc(F)c5)cc43)c21,15 nM
14,COc1ccc(-c2cc3c(ccc4c5c([nH]c43)CNC5=O)cn2)cc1,198 nM
15,O=C1NCc2[nH]c3c(ccc4cnc(-c5ccccc5F)cc43)c21,912 nM
16,O=C1NCc2[nH]c3c(ccc4cnc(-c5cccc(OCCN6CCOCC6)c5)cc43)c21,280 nM
17,O=C1NCc2[nH]c3c(ccc4cnc(-c5cncc(OCCN6CCOCC6)c5)cc43)c21,556 nM
18,COCCOc1cncc(-c2cc3c(ccc4c5c([nH]c43)CNC5=O)cn2)c1,416 nM
19,O=C1NCCc2[nH]c3c(ccc4cnc(/C=C/c5ccc(CN6CCOCC6)cc5)cc43)c21,9 nM
20,O=C1NCCc2[nH]c3c(ccc4cnc(/C=C/c5cccc(CCN6CCOCC6)c5)cc43)c21,32 nM
21,COc1ccc(-c2cc3c(ccc4c5c([nH]c43)CCNC5=O)cn2)cc1F,97 nM
22,O=C1NCCc2[nH]c3c(ccc4cnc(-c5cccc(OCCN6CCOCC6)c5)cc43)c21,294 nM
23,O=C1NCCc2[nH]c3c(ccc4cnc(-c5cncc(OCCN6CCOCC6)c5)cc43)c21,283 nM
24,COc1ccc(-c2cc3c(ccc4c5c([nH]c43)CCC5=O)cn2)cc1F,1400 nM
25,O=C1NCCCc2[nH]c3c(ccc4cnc(/C=C/c5ccccc5)cc43)c21,202 nM
26,O=C1NCCCc2[nH]c3c(ccc4cnc(/C=C/c5ccc(CN6CCOCC6)cc5)cc43)c21,140 nM
27,O=C1NCCCc2[nH]c3c(ccc4cnc(/C=C/c5cccc(CCN6CCOCC6)c5)cc43)c21,> 1000 nM

# Target: Mitogen-activated protein kinase 9 (Homo sapiens, UniProt P45984)
# Experiment: Inhibition of JNK2
# Chain of Mitogen-activated protein kinase 9 (P45984 whole entry): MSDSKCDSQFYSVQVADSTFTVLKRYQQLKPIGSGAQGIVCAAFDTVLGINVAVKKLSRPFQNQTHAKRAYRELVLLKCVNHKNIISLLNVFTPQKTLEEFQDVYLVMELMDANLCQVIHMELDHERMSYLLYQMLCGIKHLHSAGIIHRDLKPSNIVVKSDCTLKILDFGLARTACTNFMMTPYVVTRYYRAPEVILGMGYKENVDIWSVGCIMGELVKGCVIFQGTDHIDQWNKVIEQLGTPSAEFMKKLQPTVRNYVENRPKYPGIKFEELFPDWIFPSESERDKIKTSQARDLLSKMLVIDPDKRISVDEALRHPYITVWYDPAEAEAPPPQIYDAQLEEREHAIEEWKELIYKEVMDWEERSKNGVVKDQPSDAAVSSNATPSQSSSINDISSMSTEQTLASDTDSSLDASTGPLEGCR
row,Structure (SMILES),IC50
1,COCCOc1cncc(-c2cc3c(ccc4c5c([nH]c43)CCNC5=O)cn2)c1,649 nM
2,O=C1NCCCc2[nH]c3c(ccc4cnc(-c5cncc(OCCN6CCOCC6)c5)cc43)c21,3170 nM
3,COCCOc1cncc(-c2cc3c(ccc4c5c([nH]c43)CCCNC5=O)cn2)c1,2700 nM
4,COc1ccc(-c2cc3c(ccc4c5c([nH]c43)CN(C)NC5=O)cn2)cc1,547 nM
5,O=C1NCc2[nH]c3c(ccc4cnc(/C=C/c5ccccc5)cc43)c21,2 nM
6,O=C1NCc2[nH]c3c(ccc4cnc(/C=C/c5ccc(CN6CCOCC6)cc5)cc43)c21,22 nM
7,O=C1NCc2[nH]c3c(ccc4cnc(/C=C/c5cccc(CCN6CCOCC6)c5)cc43)c21,34 nM
8,O=C1NCc2[nH]c3c(ccc4cnc(Nc5cccc(F)c5)cc43)c21,1 nM
9,O=C1NCc2[nH]c3c(ccc4cnc(-c5ccccc5F)cc43)c21,30 nM
10,O=C1NCc2[nH]c3c(ccc4cnc(-c5cccc(OCCN6CCOCC6)c5)cc43)c21,11 nM
11,O=C1NCc2[nH]c3c(ccc4cnc(-c5cncc(OCCN6CCOCC6)c5)cc43)c21,75 nM
12,COCCOc1cncc(-c2cc3c(ccc4c5c([nH]c43)CNC5=O)cn2)c1,38 nM
13,O=C1NCCc2[nH]c3c(ccc4cnc(/C=C/c5ccc(CN6CCOCC6)cc5)cc43)c21,198 nM
14,O=C1NCCc2[nH]c3c(ccc4cnc(/C=C/c5cccc(CCN6CCOCC6)c5)cc43)c21,76 nM
15,COc1ccc(-c2cc3c(ccc4c5c([nH]c43)CCNC5=O)cn2)cc1F,1420 nM
16,O=C1NCCc2[nH]c3c(ccc4cnc(-c5cccc(OCCN6CCOCC6)c5)cc43)c21,269 nM
17,O=C1NCCc2[nH]c3c(ccc4cnc(-c5cncc(OCCN6CCOCC6)c5)cc43)c21,418 nM
18,COc1ccc(-c2cc3c(ccc4c5c([nH]c43)CCC5=O)cn2)cc1F,2200 nM
19,O=C1NCCCc2[nH]c3c(ccc4cnc(/C=C/c5ccccc5)cc43)c21,85 nM
20,O=C1NCCCc2[nH]c3c(ccc4cnc(/C=C/c5ccc(CN6CCOCC6)cc5)cc43)c21,980 nM
21,O=C1NCCCc2[nH]c3c(ccc4cnc(/C=C/c5cccc(CCN6CCOCC6)c5)cc43)c21,700 nM

# Tested on: not listed separately
# Experiment: Drug level in LPS-stimulated OFI mouse plasma at 100 mg/kg, po after 2 hrs by LC-MS/MS analysis
# Type: ADME, organism-based
# Set-up: dose 100 mg/kg, route oral
row,Structure (SMILES),concentration at 2 h
1,COc1ccc(-c2cc3c(ccc4c5c([nH]c43)CCC5=O)cn2)cc1F,13 µM

# Target: T1, MAP kinase-activated protein kinase 2 (Homo sapiens, UniProt P49137)
# Experiment: Inhibition of human MK2 using hsp27 peptide biotinyl-AYSRALSRQLSSGVSEIRCOOH as substrate after 45 mins by FRET assay
# T1 sequence (P49137 whole entry): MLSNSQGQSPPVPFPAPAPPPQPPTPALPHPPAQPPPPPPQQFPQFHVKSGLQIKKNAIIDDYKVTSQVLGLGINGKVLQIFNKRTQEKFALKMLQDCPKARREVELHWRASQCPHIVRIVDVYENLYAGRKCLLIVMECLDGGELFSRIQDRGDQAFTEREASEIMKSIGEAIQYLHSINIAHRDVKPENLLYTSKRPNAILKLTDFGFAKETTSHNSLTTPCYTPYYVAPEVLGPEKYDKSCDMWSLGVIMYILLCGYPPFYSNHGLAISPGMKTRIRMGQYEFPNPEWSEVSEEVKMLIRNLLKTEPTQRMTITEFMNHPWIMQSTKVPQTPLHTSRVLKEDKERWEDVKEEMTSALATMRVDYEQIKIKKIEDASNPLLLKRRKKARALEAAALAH
row,Structure (SMILES),IC50
1,COCCOc1cncc(-c2cc3c(ccc4c5c([nH]c43)CCNC5=O)cn2)c1,12 nM
2,O=C1NCCCc2[nH]c3c(ccc4cnc(-c5ccccc5OCCN5CCOCC5)cc43)c21,167 nM
3,O=C1NCCCc2[nH]c3c(ccc4cnc(-c5cncc(OCCN6CCOCC6)c5)cc43)c21,80 nM
4,COCCOc1cncc(-c2cc3c(ccc4c5c([nH]c43)CCCNC5=O)cn2)c1,96 nM
5,COc1ccc(-c2cc3c(ccc4c5c([nH]c43)CCCNC5=O)cn2)cc1,72 nM
6,NCc1[nH]c2c(ccc3cnc(/C=C/c4ccccc4)cc32)c1C(=O)O,14 nM
7,CNCc1[nH]c2c(ccc3cnc(/C=C/c4ccccc4)cc32)c1C(=O)O,60 nM
8,O=C1NOCc2[nH]c3c(ccc4cnc(/C=C/c5ccccc5)cc43)c21,25 nM
9,COc1ccc(-c2cc3c(ccc4c5c([nH]c43)CN(C)NC5=O)cn2)cc1,23 nM
10,O=C1NCc2[nH]c3c(ccc4cnc(/C=C/c5ccccc5)cc43)c21,10 nM
11,O=C1NCc2[nH]c3c(ccc4cnc(/C=C/c5ccc(CN6CCOCC6)cc5)cc43)c21,8 nM
12,O=C1NCc2[nH]c3c(ccc4cnc(/C=C/c5cccc(CCN6CCOCC6)c5)cc43)c21,10 nM
13,O=C1NCc2[nH]c3c(ccc4cnc(Nc5cccc(F)c5)cc43)c21,73 nM
14,COc1ccc(-c2cc3c(ccc4c5c([nH]c43)CNC5=O)cn2)cc1,27 nM
15,O=C1NCc2[nH]c3c(ccc4cnc(-c5ccccc5F)cc43)c21,85 nM
16,O=C1NCc2[nH]c3c(ccc4cnc(-c5ccccc5C(F)(F)F)cc43)c21,900 nM
17,O=C1NCc2[nH]c3c(ccc4cnc(-c5cccc(OCCN6CCOCC6)c5)cc43)c21,32 nM
18,O=C1NCc2[nH]c3c(ccc4cnc(-c5cncc(OCCN6CCOCC6)c5)cc43)c21,5 nM
19,COCCOc1cncc(-c2cc3c(ccc4c5c([nH]c43)CNC5=O)cn2)c1,5 nM
20,CN1Cc2[nH]c3c(ccc4cnc(/C=C/c5ccccc5)cc43)c2C1=O,1190 nM
21,O=C1NCCc2[nH]c3c(ccc4cnc(/C=C/c5ccc(CN6CCOCC6)cc5)cc43)c21,1 nM
22,O=C1NCCc2[nH]c3c(ccc4cnc(/C=C/c5cccc(CCN6CCOCC6)c5)cc43)c21,5 nM
23,COc1ccc(-c2cc3c(ccc4c5c([nH]c43)CCNC5=O)cn2)cc1F,15 nM
24,O=C1NCCc2[nH]c3c(ccc4cnc(-c5cccc(OCCN6CCOCC6)c5)cc43)c21,16 nM
25,O=C1NCCc2[nH]c3c(ccc4cnc(-c5cncc(OCCN6CCOCC6)c5)cc43)c21,10 nM
26,COc1ccc(-c2cc3c(ccc4c5c([nH]c43)CCC5=O)cn2)cc1F,160 nM
27,O=C1NCCCc2[nH]c3c(ccc4cnc(/C=C/c5ccccc5)cc43)c21,116 nM
28,O=C1NCCCc2[nH]c3c(ccc4cnc(/C=C/c5ccc(CN6CCOCC6)cc5)cc43)c21,253 nM
29,O=C1NCCCc2[nH]c3c(ccc4cnc(/C=C/c5cccc(CCN6CCOCC6)c5)cc43)c21,172 nM

# Target: T1, MAP kinase-activated protein kinase 2
# Experiment: Inhibition of MK2 in human THP-1 cells assessed as inhibition of anisomycin stimulated ser78-hsp27 phosphorylation after 10 mins by FACS analysis
# Type: cell-based
row,Structure (SMILES),IC50
1,COCCOc1cncc(-c2cc3c(ccc4c5c([nH]c43)CCNC5=O)cn2)c1,700 nM
2,O=C1NCCCc2[nH]c3c(ccc4cnc(-c5cncc(OCCN6CCOCC6)c5)cc43)c21,> 30000 nM
3,COCCOc1cncc(-c2cc3c(ccc4c5c([nH]c43)CCCNC5=O)cn2)c1,8300 nM
4,COc1ccc(-c2cc3c(ccc4c5c([nH]c43)CN(C)NC5=O)cn2)cc1,875 nM
5,O=C1NCc2[nH]c3c(ccc4cnc(-c5ccccc5F)cc43)c21,5080 nM
6,O=C1NCc2[nH]c3c(ccc4cnc(-c5cccc(OCCN6CCOCC6)c5)cc43)c21,1280 nM
7,O=C1NCc2[nH]c3c(ccc4cnc(-c5cncc(OCCN6CCOCC6)c5)cc43)c21,9330 nM
8,COCCOc1cncc(-c2cc3c(ccc4c5c([nH]c43)CNC5=O)cn2)c1,1680 nM
9,COc1ccc(-c2cc3c(ccc4c5c([nH]c43)CCNC5=O)cn2)cc1F,500 nM
10,O=C1NCCc2[nH]c3c(ccc4cnc(-c5cccc(OCCN6CCOCC6)c5)cc43)c21,1300 nM
11,O=C1NCCc2[nH]c3c(ccc4cnc(-c5cncc(OCCN6CCOCC6)c5)cc43)c21,2500 nM
12,COc1ccc(-c2cc3c(ccc4c5c([nH]c43)CCC5=O)cn2)cc1F,5800 nM

# Tested on: Mus musculus
# Experiment: Antiinflammatory activity in OFI mouse assessed as inhibition of LPS-induced TNFalpha release at 100 mg/kg, po dosed 1 hr before LPS challenge and measured after 1 hr post LPS challenge by ELISA
# Type: functional
row,Structure (SMILES),inhibition in vivo at 100 mg/kg
1,COc1ccc(-c2cc3c(ccc4c5c([nH]c43)CCC5=O)cn2)cc1F,73%
